Series [1] deals with polymers of Z α1‐antitrypsin (Homo sapiens, UniProt P01009, E366K). As to the kind of experiment: Binding to Z α1‐antitrypsin polymers (fluorescence polarisation). The method, then: Figure 1 Characteristics of the lead series of chiral hydroxy‐carboxamides identified from the ELT screen • The structure of GSK425, identified from the ELT screen, and the derived compound GSK716 obtained through a structure‐based design pipeline. • The degree of polymerisation of Z α1‐antitrypsin after 72 h at 37°C, as determined by an end‐point immunoassay using the 2C1 monoclonal antibody, in varying concentrations of compound (shown in panel A). […] Data presented as mean ± SD. • The compound bound to monomeric but not polymeric Z α1‐antitrypsin (Z α1‐AT) as reported by fluorescence polarisation of an Alexa‐488‐labelled variant of GSK716. • Representative curves reporting the interaction of different concentrations of GSK716 with Z α1‐antitrypsin based on changes in intrinsic tryptophan fluorescence.
Kinetic parameters of GSK716 binding to M, Z, S (Glu264Val) and Baghdad (Ala336Pro) (Haq et al, 2016) α1‐antitrypsin were measured by detecting intrinsic tryptophan fluorescence of the protein (excitation at 280 nm and detection of emission at 320 nm) on a stopped flow apparatus (Applied Photophysics) (Kim & Yu, 1996; Dafforn et al, 1999). […]

Series [2] can be described thus: Oral pharmacokinetics in rat. The format is in vivo. Conditions: Han Wistar, whole blood, ≤ 3 mg/kg, read-out: F (oral bioavailability). The method, then: […] Blood samples were taken into EDTA, diluted and mixed with acetonitrile containing internal standard (alprazolam) and centrifuged to precipitate proteins. Aliquots of the resultant supernatant were analysed by LC‐MS/MS, and concentrations of GSK716 in blood were determined. Non‐compartmental pharmacokinetic analysis (NCA) was carried out using Phoenix WinNonLin 6.3 (Certara L.P.). Free drug was measured in Z α1‐antitrypsin transgenic mice by dialysing tissue samples in rapid equilibrium dialysis cassettes.

Series [3] can be described thus: Oral pharmacokinetics in male CD‐1 mouse. The format is in vivo. As to the method: Male CD‐1 mice, Han Wistar rats or beagle dogs were administered GSK716 as a suspension in 1% w/v aqueous methylcellulose via oral gavage at doses of 1 mg/kg (dog) or 10, 30 and 100 mg/kg (mouse, rat). Blood samples were taken into EDTA, diluted and mixed with acetonitrile containing internal standard (alprazolam) and centrifuged to precipitate proteins. Aliquots of the resultant supernatant were analysed by LC‐MS/MS, and concentrations of GSK716 in blood were determined. Non‐compartmental pharmacokinetic analysis (NCA) was carried out using Phoenix WinNonLin 6.3 (Certara L.P.). Free drug was measured in Z α1‐antitrypsin transgenic mice by dialysing tissue samples in rapid equilibrium dialysis cassettes.

In series [4] the test system is α1‐antitrypsin variants M, S, Baghdad, Z. As to the kind of experiment: Association with α1‐antitrypsin variants M, S, Baghdad and Z (intrinsic tryptophan fluorescence). Type of series: binding, human. Conditions: 10 μM GSK716. From the text:
Polymerisation of α1‐antitrypsin involves transition through a transient intermediate state known as M*, that is readily populated by the Z variant (Dafforn et al, 1999; Knaupp et al, 2010). The M* conformational ensemble appears to be a distinct species between the native state conformation and that of the final polymer. One of the hallmarks of M* is its recognition by environment‐sensitive fluorescent reporter dyes. Thermal shift assays that make use of the dye SYPRO Orange report the stability of the protein native state against heat‐induced unfolding. […] Native state stability can also be probed by equilibrium unfolding using chemical denaturants, where a peak in bis‐ANS fluorescence corresponds with a maximally populated unfolding intermediate (James & Bottomley, 1998). […] The association of GSK716 induced a marked quenching and blue‐shift of the α1‐antitrypsin intrinsic tryptophan fluorescence spectrum (Fig 4D, inset). The rate of change in fluorescence during association of 10µM GSK716 was proportional to the propensity of α1‐antitrypsin mutants to form polymers in vivo: inert (M), mild (S), moderate (Baghdad) and severe (Z) α1‐antitrypsin (Fig 4D, top and bottom). […]

What is called bioavailability is dose-corrected exposure relative to a reference, in per cent.

Sequence of polymers of Z α1‐antitrypsin (P01009 25-418 E366K): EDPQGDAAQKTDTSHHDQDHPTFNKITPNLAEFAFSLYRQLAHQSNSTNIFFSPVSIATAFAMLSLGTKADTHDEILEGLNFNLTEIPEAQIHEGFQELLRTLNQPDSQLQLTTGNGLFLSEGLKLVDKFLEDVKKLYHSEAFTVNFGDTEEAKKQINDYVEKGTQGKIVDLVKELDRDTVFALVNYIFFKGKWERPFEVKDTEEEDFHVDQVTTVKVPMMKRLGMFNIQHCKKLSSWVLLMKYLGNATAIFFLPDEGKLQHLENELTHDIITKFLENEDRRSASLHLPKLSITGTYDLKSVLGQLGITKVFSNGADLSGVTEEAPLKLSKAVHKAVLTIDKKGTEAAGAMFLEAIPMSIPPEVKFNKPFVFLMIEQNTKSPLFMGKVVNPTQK

Regarding `CCC[C@@H](NC(=O)c1cccc2c1CC(=O)N2)[C@@H](O)c1cccc(F)c1C` [GSK716], the “binding to polymers of Z α1‐antitrypsin” value in series [1] is recorded as “lack of binding”. Besides, the bioavailability in series [2] came out at 48%. The results for the DNAUCinf in blood in series [3] (single PO 10 mg/kg), in series [3] (single PO 30 mg/kg) and in series [3] (single PO 100 mg/kg) were 202 ± 101, 294 ± 47 and 403 ± 246, respectively. For the same molecule, in series [4], the “binding / rate of association across α1‐antitrypsin variants” value is recorded as “M < S < Baghdad < Z α1‐antitrypsin”.

The values are drawn from PMC7933930, “Development of a small molecule that corrects misfolding and increases secretion of Z α1‐antitrypsin” (EMBO Molecular Medicine, 2021).
